Literature values in patent US20260327628A1, “AN RNA APTAMER THAT BINDS TO ASP7967 OR AN ANALOGUE THEREOF” (priority 2022, published 2026).
Entries after “also recorded” stand apart in the source; their conditions may differ.

Test system: potassium channel Kv12.2 encoded by the Kcnh3/BEC1 gene
Conditions: cited from earlier work

Q: For `Fc1ccc(Nc2nc(NCc3ncccn3)nc(Nc3ccccc3)n2)cc1` [ASP2905, reference compound], which “inhibition of Kv12.2 (KCNH3) in words” value is on record?
A: potent and selective inhibitor; also recorded: known inhibitor
